Data set [1] addresses T1, Human immunodeficiency virus type 1 protease (Human immunodeficiency virus 1, UniProt Q72874). The experiment in a line: Binding affinity for HIV-1 protease was determined in vitro.
The test system of data set [2] is CCRF-CEM. The experiment in a line: Antiviral activity against HIVIIIB strain of HIV-1 was determined in an CEM based assay. Format: functional, cell-based. The conditions noted are these: Homo sapiens.
Data set [3] deals with T1, Human immunodeficiency virus type 1 protease. As to the kind of experiment: Ability to inhibit HIV-1 protease was determined using spectrofluorimetric assay.
The target is the same in data set [4]. As to the kind of experiment: Binding affinity for HIV-1 protease was determined.
Data set [5] is described as follows: Toxicity in CEM cells infected with HIVIIIB strain of HIV-1. Format: cell-based. The conditions noted are these: human, CEM (CCRF-CEM) cells infected with HIV-1 strain IIIB; read-out: TD50 (the source's name).
The target in data set [6] is T1, Human immunodeficiency virus type 1 protease. The experiment in a line: Ability to inhibit HIV-1 protease was determined using spectrofluorimetric assay.
The target is the same in data set [7]. The experiment in a line: Binding affinity for HIV-1 protease was determined.
The test system of data set [8] is CCRF-CEM. The experiment in a line: Antiviral activity against HIVIIIB strain of HIV-1 was determined in an CEM based assay. To be noted: Homo sapiens. Format: functional, cell-based.
For data set [9], the target named is T1, Human immunodeficiency virus type 1 protease. As to the kind of experiment: Binding affinity for HIV-1 protease was determined in vitro.

In general, Ki refers to a measure of affinity in units of concentration, obtained from inhibition or displacement. A high value points to weaker binding. The term EC50 denotes the concentration giving half of the maximal effect. Take `CC(C)CN(C[C@@H](O)[C@H](Cc1ccccc1)NC(=O)OCc1ccccc1)S(=O)(=O)c1ccccc1`: the Ki in [1] came to 3.2 nM. The compound further showed an EC50 with CCRF-CEM [2] of 113 nM.
The IC50 is the concentration needed to halve the response being measured. Compound `CC(C)CCN(C[C@@H](O)[C@H](Cc1ccccc1)NC(=O)OCc1ccccc1)S(=O)(=O)c1ccccc1Cl` displayed an IC50 in [3] of 380 nM. Moreover, the Ki in data set [4] was found to be 227 nM.
In the same order, the values of `CC(C)CCN(C[C@@H](O)[C@H](Cc1ccccc1)NC(=O)OCc1ccccc1)S(=O)(=O)c1ccc(Cl)cc1` are 10 nM and 4.1 nM.
In data set [3], `CC(C)CCN(C[C@@H](O)[C@H](Cc1ccccc1)NC(=O)OCc1ccccc1)S(=O)(=O)Cc1ccccc1` returned an IC50 of 10000 nM.
In data set [3], `CC(C)CCN(C[C@H](O)[C@H](Cc1ccccc1)NC(=O)OCc1ccccc1)S(=O)(=O)c1ccccc1` returned an IC50 of 450 nM. This compound registered a Ki in data set [4] of 295 nM.
Consider `CC(C)CCN(C[C@@H](O)[C@H](Cc1ccccc1)NC(=O)[C@H](CC(N)=O)NC(=O)c1ccc2ccccc2n1)S(=O)(=O)c1ccccc1`, for which, in data set [5], the CC50 stood at 203 µM. Also, the EC50 in the data set on CCRF-CEM [2] turned out to be 5 nM.
In data set [3], `CCCS(=O)(=O)N(CCC(C)C)C[C@@H](O)[C@H](Cc1ccccc1)NC(=O)OCc1ccccc1` came in with an IC50 of 210 nM. The same compound came in with a Ki in [4] of 128 nM.
In data set [6], `CC(C)CCN(C[C@@H](O)[C@H](Cc1ccccc1)NC(=O)OCc1ccccc1)S(C)(=O)=O` yielded an IC50 of 3200 nM. This compound registered a Ki in data set [7] of 1870 nM.
In the same order, the values of `O=C(N[C@@H](Cc1ccccc1)[C@H](O)CN(Cc1ccccc1)S(=O)(=O)c1ccccc1)OCc1ccccc1` are 190 nM and 125 nM.
As to `CC(C)CCN(C[C@@H](O)[C@H](Cc1ccccc1)NC(=O)OCc1ccccc1)S(=O)(=O)c1ccccc1`, in data set [5], the CC50 was 26 µM. The compound further displayed an EC50 with CCRF-CEM [8] of 55 nM. In data set [9], this compound had a Ki of 10 nM.
In [6], `CC(C)CCN(C[C@@H](O)[C@H](Cc1ccccc1)NC(=O)[C@H](CC(N)=O)NC(=O)OCc1ccccn1)S(=O)(=O)c1ccccc1` gave an IC50 of 2.2 nM. The compound also had an inhibition constant (Ki) in [7] of 0.5 nM.
For `CC(C)CCN(C[C@@H](O)[C@H](Cc1ccccc1)NC(=O)[C@H](CC(N)=O)NC(=O)OCc1ccccc1)S(C)(=O)=O`, in that order: 100 nM and 57 nM.
In the same order, the values of `O=C(N[C@@H](Cc1ccccc1)[C@H](O)CN(CC1CCCCC1)S(=O)(=O)c1ccccc1)OCc1ccccc1` are 14 nM and 6.7 nM.
`CC(C)CCN(C[C@@H](O)[C@H](Cc1ccccc1)NC(=O)[C@H](CC(N)=O)NC(=O)c1ccc2ccccc2n1)S(C)(=O)=O`: in data set [1], the Ki came to 13 nM. Besides, the CC50 in [5] turned out to be 45 µM. Besides, in the data set with CCRF-CEM [2], the EC50 worked out at 53 nM.
In data set [3], `CC(C)CCN(C[C@@H](O)[C@H](Cc1ccccc1)NC(=O)OCc1ccccc1)S(=O)(=O)c1cccc(Cl)c1` came in with an IC50 of 92 nM. This compound had a Ki in data set [4] of 61 nM.
